These results are taken from patent publication US20250353833A1, “DPP9 BINDING COMPOUNDS” (UNIVERSITEIT ANTWERPEN, priority 2022, published 2025).

One test addresses DPP9 (Homo sapiens (Human), UniProt Q86TI2). The experiment in a line: DPP9 enzyme inhibition, IC50 measurement (Ala-Pro-pNA release). To be noted: for IC50 / SI DPP9/8: Table 3; for IC50: mean ± SD (n = 3), read-out: DPP9 IC50 ± SD; for SI DPP9/8 / SI DPP9/DPP8: selectivity index; for SI DPP9/8: DPP8 IC50 over DPP9 IC50; for SI DPP9/DPP8: Table 4. The class given is biochemical. The procedure: DPP4 was purified from human seminal plasma as described previously.^[3]
(§1) IC50 measurements. […] The Magellan software was used to process the data, which was then fitted using a non-linear fit model in GraFit 7. […] As a blank, the assay buffer was used instead of the enzyme. Screening measurements were carried out in duplo and IC50 values were determined in triplo with at least eight different inhibitor concentrations as described by Van Goethem et al.

The next test has as its target DPP8 (Homo sapiens (Human), UniProt Q6V1X1). The experiment in a line: DPP8 enzyme inhibition, IC50 measurement (Ala-Pro-pNA release). To be noted: Table 3; mean ± SD (n = 3); read-out: DPP8 IC50 ± SD. Type of test: biochemical. The procedure: as §1

DPP9, sequence (Q86TI2 whole entry): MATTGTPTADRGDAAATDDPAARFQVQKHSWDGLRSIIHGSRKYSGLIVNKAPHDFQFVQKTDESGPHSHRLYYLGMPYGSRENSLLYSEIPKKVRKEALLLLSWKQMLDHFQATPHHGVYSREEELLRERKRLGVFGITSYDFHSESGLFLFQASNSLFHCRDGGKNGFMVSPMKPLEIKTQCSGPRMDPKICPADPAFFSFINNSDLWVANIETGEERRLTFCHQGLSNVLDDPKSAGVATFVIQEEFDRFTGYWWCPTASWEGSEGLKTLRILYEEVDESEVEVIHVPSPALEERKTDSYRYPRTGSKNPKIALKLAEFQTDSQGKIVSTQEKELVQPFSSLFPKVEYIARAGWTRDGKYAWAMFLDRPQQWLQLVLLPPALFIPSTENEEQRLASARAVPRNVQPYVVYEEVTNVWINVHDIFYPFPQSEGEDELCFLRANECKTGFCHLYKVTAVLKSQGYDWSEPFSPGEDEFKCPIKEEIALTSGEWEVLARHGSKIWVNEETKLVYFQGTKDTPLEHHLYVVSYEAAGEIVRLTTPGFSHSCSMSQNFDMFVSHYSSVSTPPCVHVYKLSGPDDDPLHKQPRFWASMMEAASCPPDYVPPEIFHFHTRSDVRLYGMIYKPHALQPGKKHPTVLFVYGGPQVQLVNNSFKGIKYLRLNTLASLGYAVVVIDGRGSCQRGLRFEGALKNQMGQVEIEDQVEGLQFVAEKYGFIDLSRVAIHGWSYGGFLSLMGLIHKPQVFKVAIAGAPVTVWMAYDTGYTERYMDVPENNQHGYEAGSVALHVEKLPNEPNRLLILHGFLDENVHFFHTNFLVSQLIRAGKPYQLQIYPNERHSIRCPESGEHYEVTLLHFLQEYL
DPP8, sequence (Q6V1X1 whole entry): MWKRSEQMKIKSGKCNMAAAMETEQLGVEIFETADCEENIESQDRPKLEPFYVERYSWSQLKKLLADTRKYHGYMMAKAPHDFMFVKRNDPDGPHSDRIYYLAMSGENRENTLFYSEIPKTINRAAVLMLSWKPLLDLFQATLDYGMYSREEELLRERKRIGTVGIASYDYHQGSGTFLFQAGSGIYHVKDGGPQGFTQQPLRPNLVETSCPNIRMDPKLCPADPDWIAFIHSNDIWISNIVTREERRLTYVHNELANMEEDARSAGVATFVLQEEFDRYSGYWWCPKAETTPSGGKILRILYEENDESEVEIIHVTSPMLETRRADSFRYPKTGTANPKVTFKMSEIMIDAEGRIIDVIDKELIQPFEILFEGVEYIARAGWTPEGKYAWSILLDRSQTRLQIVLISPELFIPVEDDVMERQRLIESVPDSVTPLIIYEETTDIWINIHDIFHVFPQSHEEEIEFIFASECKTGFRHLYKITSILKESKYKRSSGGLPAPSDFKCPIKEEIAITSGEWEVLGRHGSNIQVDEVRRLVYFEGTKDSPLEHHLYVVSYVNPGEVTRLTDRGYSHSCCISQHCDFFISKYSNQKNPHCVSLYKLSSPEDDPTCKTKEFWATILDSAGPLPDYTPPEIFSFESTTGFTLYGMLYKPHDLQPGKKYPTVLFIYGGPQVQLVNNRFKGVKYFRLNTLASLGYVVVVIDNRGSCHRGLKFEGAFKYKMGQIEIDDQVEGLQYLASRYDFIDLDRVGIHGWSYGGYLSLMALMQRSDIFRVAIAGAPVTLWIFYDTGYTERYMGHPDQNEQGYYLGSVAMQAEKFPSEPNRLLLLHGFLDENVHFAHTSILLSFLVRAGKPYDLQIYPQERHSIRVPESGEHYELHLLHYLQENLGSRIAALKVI

The IC50 is the midpoint of a concentration-inhibition curve. As to `O=C(O)[C@@H]1CCCN1C(=O)OC12CC3CC(CC(NCC(=O)N4Cc5ccc(F)cc5C4)(C3)C1)C2`, at DPP9, the IC50 is 0.00803 µM and the “SI DPP9/8” value came out at 114.6. At DPP8, the IC50 is 0.92 ± 0.121 µM.
Taken in the same sequence, the figures for `O=C(N[C@@H](Cc1c[nH]c2ccccc12)C(=O)O)OC12CC3CC(CC(NCC(=O)N4Cc5ccc(F)cc5C4)(C3)C1)C2` were 0.00655 µM, 25.0 and 0.164 µM.
Consider “3-((2-(isoindolin-2-yl)-2-oxoethyl)amino)adamantan-1-yl tert-pentylcarbamate hydrochloride [Compound 31]”, for which, on DPP9, the IC50 stood at 0.378 ± 0.173 µM and the “SI DPP9/8” value is listed as 12.5. Also, at DPP8, the IC50 came to 4.71 ± 1.59 µM.
As for `N#Cc1ccc(CNC23CC4CC(CC(NCC(=O)N5Cc6ccccc6C5)(C4)C2)C3)cc1` [Compound 26, 4-(((-3-((2-(isoindolin-2-yl)-2-oxoethyl)amino)adamantan-1-yl)amino)methyl)benzonitrile], at DPP9, the concentration for half-maximal inhibition (IC50) was 0.0506 ± 0.0287 µM and the “SI DPP9/8” value is given as 13.3. In addition, the IC50 at DPP8 was 0.672 ± 0.412 µM.
With `O=C(CNC12CC3CC(C1)CC(NCc1ccc(-c4ccccc4)cc1)(C3)C2)N1Cc2ccccc2C1` [Compound 27, 2-((3-(([1,1′-biphenyl]-4-ylmethyl)amino)adamantan-1-yl)amino)-1-(isoindolin-2-yl)ethan-1-one], at DPP9, the IC50 came out at 0.0932 ± 0.039 µM and the “SI DPP9/8” value was 16.5. On DPP8, the IC50 worked out at 1.54 ± 0.101 µM.
Taken in the same sequence, the figures for `CC(C)(C)OC(=O)NC12CC3CC(CC(NCC(=O)N4Cc5ccccc5C4)(C3)C1)C2` [Compound 28, tert-butyl(3-((2-(isoindolin-2-yl)-2oxoethyl)amino)adamantan-1-yl)carbamate] were 0.0367 µM, 31.7 and 1.14 ± 0.15 µM.
In the case of `O=C(NCCCCO)OC12CC3CC(CC(NCC(=O)N4Cc5ccccc5C4)(C3)C1)C2` [Compound 29, 3-((2-(isoindolin-2-yl)-2-oxoethyl)amino)adamantan-1-yl(4-hydroxybutyl)carbamate], at DPP9, the IC50 was 0.243 ± 0.107 µM and the “SI DPP9/8” value is recorded as 10.7. The IC50 on DPP8 was determined as 2.6 ± 0.577 µM.
For `O=C(NC(c1ccc(F)cc1)c1ccc(F)cc1)OC12CC3CC(CC(NCC(=O)N4Cc5ccccc5C4)(C3)C1)C2` [Compound 32, 3-((2-(isoindolin-2-yl)-2-oxoethyl)amino)adamantan-1-yl (bis(4-fluorophenyl)methyl)carbamate], in that order: 0.0477 µM, 14.0 and 0.667 ± 0.0311 µM.
Taken in the same sequence, the figures for `O=C(NC(c1ccccc1)c1ccccc1)OC12CC3CC(CC(NCC(=O)N4Cc5ccccc5C4)(C3)C1)C2` [Compound 33, 3-((2-(isoindolin-2-yl)-2-oxoethyl)amino)adamantan-1-yl benzhydrylcarbamate] were 0.0143 µM, 12.2 and 0.175 ± 0.0331 µM.
For `O=C(NCCCC[C@H](NC(=O)OC12CC3CC(CC(NCC(=O)N4Cc5ccccc5C4)(C3)C1)C2)C(=O)O)OCc1ccccc1` [Compound 34, N^6-((benzyloxy)carbonyl)-N^2-(((3-((2-(isoindolin-2-yl)-2-oxoethyl)amino)adamantan-1-yl)oxy)carbonyl)-L-lysine], in that order: 0.00174 µM, 22.5 and 0.0394 µM.
Turning to `O=C(N[C@H]1CC[C@H](O)CC1)OC12CC3CC(CC(NCC(=O)N4Cc5ccccc5C4)(C3)C1)C2` [Compound 35, 3-((2-(isoindolin-2-yl)-2-oxoethyl)amino)adamantan-1-yl ((1r,4R)-4-hydroxycyclohexyl)carbamate], at DPP9, the IC50 was determined as 0.0366 µM and the “SI DPP9/8” value is reported as 10.9. Moreover, the IC50 on DPP8 came to 0.399 ± 0.0388 µM.
For `O=C(NCc1ccccc1)OC12CC3CC(CC(NCC(=O)N4Cc5ccccc5C4)(C3)C1)C2` [Compound 36, 3-((2-(isoindolin-2-yl)-2-oxoethyl)amino)adamantan-1-yl benzylcarbamate], the IC50 on DPP9 turned out to be 0.0738 µM; on DPP8, 1.15 ± 0.151 µM. For the same compound, on DPP9, the “SI DPP9/8” value is 15.6.
Take `O=C(NCc1ccncc1)OC12CC3CC(CC(NCC(=O)N4Cc5ccccc5C4)(C3)C1)C2` [Compound 37, 3-((2-(isoindolin-2-yl)-2-oxoethyl)amino)adamantan-1-yl (pyridin-4-ylmethyl)carbamate]: on DPP9, the IC50 was 0.0908 ± 0.0135 µM and the “SI DPP9/8” value was 12.2. Besides, the IC50 on DPP8 turned out to be 1.11 ± 0.335 µM.
In the case of `O=C(NCCCc1ccccc1)OC12CC3CC(CC(NCC(=O)N4Cc5ccccc5C4)(C3)C1)C2` [Compound 38, 3-((2-(isoindolin-2-yl)-2-oxoethyl)amino)adamantan-1-yl (3-phenylpropyl)carbamate], on DPP9, the IC50 was determined as 0.1 µM and the “SI DPP9/8” value was 10.1. Besides, the IC50 at DPP8 came to 1.01 ± 0.132 µM.
Taken in the same sequence, the figures for `O=C(NCc1ccc(F)cc1F)OC12CC3CC(CC(NCC(=O)N4Cc5ccccc5C4)(C3)C1)C2` [Compound 39, 3-((2-(isoindolin-2-yl)-2-oxoethyl)amino)adamantan-1-yl (2,4-difluorobenzyl)carbamate] were 0.0483 µM, 17.0 and 0.823 ± 0.185 µM.
Take `CC(C)(C)NC(=O)NC12CC3CC(CC(NCC(=O)N4Cc5ccccc5C4)(C3)C1)C2.Cl` [Compound 40, 1-(tert-butyl)-3-(3-((2-(isoindolin-2-yl)-2-oxoethyl)amino)adamantan-1-yl)urea hydrochloride]: the IC50 at DPP9 was determined as 0.0518 ± 0.0157 µM; at DPP8 it was 1.05 ± 0.133 µM. The “SI DPP9/8” value at DPP9 came to 20.3.
Taken in the same sequence, the figures for `O=C(NC12CC3CC(CC(C3)C1)C2)NC12CC3CC(CC(NCC(=O)N4Cc5ccccc5C4)(C3)C1)C2` [Compound 41, 1-(adamantan-1-yl)-3-(3-((2-(isoindolin-2-yl)-2-oxoethyl)amino)adamantan-1-yl)urea] were 0.0328 µM, 0.592 ± 0.0877 µM and 18.0.
For `Cl.O=C(NCc1ccccc1)NC12CC3CC(CC(NCC(=O)N4Cc5ccccc5C4)(C3)C1)C2` [Compound 42, 1-benzyl-3-(3-((2-(isoindolin-2-yl)-2-oxoethyl)amino)adamantan-1-yl)urea hydrochloride], in that order: 0.0378 ± 0.0133 µM, 0.505 ± 0.0257 µM and 13.4.
Consider `N#Cc1ccc(CCC(=O)NC23CC4CC(CC(NCC(=O)N5Cc6ccccc6C5)(C4)C2)C3)cc1` [Compound 44, 3-(4-cyanophenyl)-N-(3-((2-(isoindolin-2-yl)-2-oxoethyl)amino)adamantan-1-yl)propanamide], for which the IC50 at DPP9 was 0.032 µM; on DPP8, 0.638 ± 0.0464 µM. Besides, on DPP9, the “SI DPP9/8” value was 19.9.
Taken in the same sequence, the figures for `CC(C)(C)OC(=O)NC12CC3CC(CC(NCC(=O)N4Cc5ccc(F)cc5C4)(C3)C1)C2` [Compound 46, tert-butyl (3-((2-(5-fluoroisoindolin-2-yl)-2-oxoethyl)amino)adamantan-1-yl)carbamate] were 0.0143 µM, 0.824 ± 0.148 µM and 57.6.
As for `NC12CC3CC(C1)CC(NCC(=O)N1Cc4ccc(F)cc4C1)(C3)C2` [Compound 47, 2-((3-aminoadamantan-1-yl)amino)-1-(5-fluoroisoindolin-2-yl)ethan-1-one bis(2,2,2-trifluoroacetate)], on DPP9, the IC50 is 0.259 ± 0.0358 µM and the “SI DPP9/8” value was found to be 10.1. Also, on DPP8, the IC50 turned out to be 2.62 ± 0.394 µM.
Taken in the same sequence, the figures for `CC(C)(C)NC(=O)NC12CC3CC(CC(NCC(=O)N4Cc5ccc(F)cc5C4)(C3)C1)C2` [Compound 48, 1-(tert-butyl)-3-(3-((2-(5-fluoroisoindolin-2-yl)-2-oxoethyl)amino)adamantan-1-yl)urea] were 0.004 ± 0.001 µM, 85 and 0.369 ± 0.03 µM.
Take `Cc1ncsc1-c1ccc(CNC(=O)[C@@H]2C[C@@H](O)CN2C(=O)[C@@H](NC(=O)c2csc(-c3ccc(C(=O)NC45CC6CC(CC(NCC(=O)N7Cc8ccc(F)cc8C7)(C6)C4)C5)cc3)c2)C(C)(C)C)cc1` [Compound 122, (2S,4R)-1-((2S)-2-(5-(4-((3-((2-(5-fluoroisoindolin-2-yl)-2-oxoethyl)amino)adamantan-1-yl)carbamoyl)phenyl)thiophene-3-carboxamido)-3,3-dimethylbutanoyl)-4-hydroxy-N-(4-(4-methylthiazol-5-yl)benzyl)pyrrolidine-2-carboxamide]: the “SI DPP9/DPP8” value on DPP9 is given as 11.
On the same count and under the same terms, the figure for `Cc1ncsc1-c1ccc(CNC(=O)[C@@H]2C[C@@H](O)CN2C(=O)[C@@H](NC(=O)c2ccc(-c3ccc(C(=O)NC45CC6CC(CC(NCC(=O)N7Cc8ccc(F)cc8C7)(C6)C4)C5)cc3)cc2)C(C)(C)C)cc1` [Compound 123, N4-(3-((2-(5-fluoroisoindolin-2-yl)-2-oxoethyl)amino)adamantan-1-yl)-N4′-((S)-1-((2S,4R)-4-hydroxy-2-((4-(4-methylthiazol-5-yl)benzyl)carbamoyl)pyrrolidin-1-yl)-3,3-dimethyl-1-oxobutan-2-yl)-[1,1′-biphenyl]-4,4′-dicarboxamide] is 3; for `Cc1ncsc1-c1ccc(CNC(=O)[C@@H]2C[C@@H](O)CN2C(=O)[C@@H](NC(=O)CCOCCOc2ccc(-c3ccc(C(=O)NC45CC6CC(CC(NCC(=O)N7Cc8ccc(F)cc8C7)(C6)C4)C5)cc3)cc2)C(C)(C)C)cc1` [Compound 125, (2S,4R)-1-((2S)-2-(3-(2-((4′-((3-((2-(5-fluoroisoindolin-2-yl)-2-oxoethyl)amino)adamantan-1-yl)carbamoyl)-[1,1′-biphenyl]-4-yl)oxy)ethoxy)propanamido)-3,3-dimethylbutanoyl)-4-hydroxy-N-(4-(4-methylthiazol-5-yl)benzyl)pyrrolidine-2-carboxamide] it is 9.
